{
  "source": "patent US20160208002A1",
  "about": "“Compositions Associated with and Methods of Managing Neutrophil Movement” (priority 2013, published 2016)",
  "key": {"[1]": {"test_system": "C57/BL6 mice treated with bleomycin", "test": "bleomycin-treated mice, cells in lung sections after BAL", "format": "in vivo", "details": "0.1 mg/kg intraperitoneal daily, day 3 after bleomycin, FIG. 5B", "method": "The successful aspiration of bleomycin into the lungs was confirmed by listening for the crackling noise heard after the aspiration. 24 hours following bleomycin aspiration (day 1), mice were treated daily with intraperitoneal injections of 50 microliters of PBS containing 2 microliters of 1 mg/ml of compound 1 (ChemBridge Corporation, San Diego, Calif.) (0.1 mg/kg) dissolved in DMSO (SigmaAldrich, St. Louis, Mo.) or an equal volume of PBS containing 2 microliters of DMSO. All animals were used in accordance with rules published by the National Institutes of Health and with a protocol approved by the Texas A&M University Institutional Animal Care and Use Committee. Mice were weighed daily, and euthanized using CO2 following NIH guidelines at day 3 after bleomycin aspiration. There were no injections on day 3. […] The cells from the first BAL collection were collected by centrifugation at 500×g for 10 minutes. The BAL pellets were resuspended in the secondary and tertiary BAL fluid and the combined cells were collected by centrifugation at 500×g for 5 minutes. The cells were resuspended in 500 microliters of 4% (w/v) BSA-PBS and counted with a hemacytometer. 100 microliters of diluted cells were then aliquoted into cytospin funnels and were then spun onto glass slides (Superfrost plus white slides, VWR) at 400×g for 5 minutes using a cytospin centrifuge (Shandon, Cheshire, England). These cells were then air dried, and stained with anti-mouse Ly6G (Biolegend) to detect neutrophils, anti-mouse CD11b (Biolegend) to detect granulocytes, monocytes, and macrophages, anti-mouse CD11c (MBL International) to detect alveolar macrophages and dendritic cells, or anti-mouse CD45 (Biolegend) to detect leukocytes. For all slides, non-specific; binding was blocked by incubation in PBS containing 4% BSA for 60 minutes. Slides were then incubated with 5 microgram/ml primary antibodies in 4% BSA-PBS for 60 minutes. Primary antibodies were detected with biotinylated mouse anti-rat antibody (Jackson ImmunoResearch, West Grove, Pa.). All secondary antibodies were used at 2.5 microgram/ml in 4% BSA-PBS for 30 minutes. Biotinylated antibodies were detected by a 1/500 dilution of ExtrAvidin alkaline phosphatase (Vector Laboratories, Burlingame, Calif.) in 4% BSA-PBS for 30 minutes. Staining was developed with the Vector Red Alkaline Phosphatase Kit (Vector Laboratories) for 4 minutes following the manufacturer's protocol. […] After washing, the biotinylated antibodies were detected by streptavidin-alkaline phosphatase kit (Vector Laboratories) following the manufacturer's protocol."}, "[2]": {"test_system": "C57/BL6 mice treated with bleomycin", "test": "bleomycin-treated mice, cells in bronchoalveolar lavage (BAL)", "format": "in vivo", "details": "0.1 mg/kg intraperitoneal daily from day 1, day 3 after bleomycin, versus drug vehicle; FIG. 5A", "method": "The successful aspiration of bleomycin into the lungs was confirmed by listening for the crackling noise heard after the aspiration. 24 hours following bleomycin aspiration (day 1), mice were treated daily with intraperitoneal injections of 50 microliters of PBS containing 2 microliters of 1 mg/ml of compound 1 (ChemBridge Corporation, San Diego, Calif.) (0.1 mg/kg) dissolved in DMSO (SigmaAldrich, St. Louis, Mo.) or an equal volume of PBS containing 2 microliters of DMSO. All animals were used in accordance with rules published by the National Institutes of Health and with a protocol approved by the Texas A&M University Institutional Animal Care and Use Committee. Mice were weighed daily, and euthanized using CO2 following NIH guidelines at day 3 after bleomycin aspiration. There were no injections on day 3. […] The cells were resuspended in 500 microliters of 4% (w/v) BSA-PBS and counted with a hemacytometer. […] Primary antibodies were detected with biotinylated mouse anti-rat antibody (Jackson ImmunoResearch, West Grove, Pa.). […] Biotinylated antibodies were detected by a 1/500 dilution of ExtrAvidin alkaline phosphatase (Vector Laboratories, Burlingame, Calif.) in 4% BSA-PBS for 30 minutes. […] After washing, the biotinylated antibodies were detected by streptavidin-alkaline phosphatase kit (Vector Laboratories) following the manufacturer's protocol."}},
  "data": [
    {"compound": "CCC(=O)Nc1nc(C)c(-c2csc(Nc3ccc(N(C)C)cc3)n2)s1", "note": "[Compound 1]", "values": [
      {"measurement": "CD11c-positive macrophages in lung sections", "setting": "[1]; versus drug vehicle", "value": "significant increase"},
      {"measurement": "CD206-positive cells in lung sections", "setting": "[1]; versus drug vehicle", "value": "significant increase"},
      {"measurement": "number of Ly6G-positive neutrophils in lung sections", "setting": "[1]; versus drug vehicle", "value": "significant decrease"},
      {"measurement": "CD11b-positive inflammatory macrophages in lung sections", "setting": "[1]", "value": "no effect"},
      {"measurement": "number of CD11b-positive inflammatory macrophages in the BAL", "setting": "[2]", "value": "decrease"},
      {"measurement": "number of Ly6G-positive neutrophils in the BAL", "setting": "[2]", "value": "decrease"}
    ]}
  ]
}
